{"source": "paper PMC10126473", "about": "(Frontiers in Pharmacology, 2023)", "key": {"[1]": {"assay": "PBPK model (GastroPlus): simulation and model parameters incl. permeability surface product and scaled metabolic kinetics, mouse", "settings": "for Liver Vmax / Plasma k: in vivo (scaled)", "protocol": "CL in vitro,app expressed as mL/min/mg microsomes were scaled to the predicted CLintrinsic using scaling factor (SF), microsome level and liver weight as indicated below: CLintrinsic=CLin vitro,app×SF×liver weight×microsome level per gram liver\nAll modeling and simulation were carried out using GastroPlus version 9.5 (Simulations Plus Inc., CA). Physiochemical parameters including blood-to-plasma ratio (Rbp), pKa, and logP were predicted by ADMET predictor (Simulations Plus Inc., CA). Physiologies of all species, including organ weights, volumes, tissue compositions, and blood perfusion rates, were generated by the program’s internal module. Tissue intracellular unbound fractions were generated by GastroPlus based on predicted or experimentally determined physiochemical and chemical-biological parameters including pKa, logP, plasma unbound fractions (Fup), Rbp, solubility, and PAMPA permeability. The PBPK model structure is illustrated in Figure 2 and its parameters are summarized in Supplementary Tables S3–6. The default absorption and dissolution model was applied and effective intestine permeability was predicted by a built-in correlation from the experimental PAMPA permeability result. Parameters including partition coefficients in tissue (Kp), CLintrinsic, and permeability surface area product (PStc) were estimated by fitting the model to experimental data using the optimization module in GastroPlus with objective function weights at 1/(y + ŷ)^2, where y is the observed value and ŷ is the predicted value.\nModel parameter estimation of all plasma-tissue partition coefficients (Kp) was performed simultaneously using both the IV and PO datasets. […] The experimentally determined pharmacokinetic profiles were compared with the model simulations."}, "[2]": {"assay": "Hamster PK and lung concentration study (non-compartmental analysis)", "settings": "for half-life: t1/2 Observed; for Tmax: Tmax Observed", "protocol": "For the IV group, a single bolus IV dose of 3 mg/kg of PDN was administered to 24 hamsters (3 hamsters per time point). For the PO group, a dose of 30 mg/kg of PDN was administered via oral gavage to 21 hamsters (3 hamsters per time point). The formulation used for both IV and PO was 20% HP-β-CD in water (0.6 mg/mL PDN for IV and 3 mg/mL for PO). All dosing solutions were freshly prepared on the day of dosing. […] After collection, tissues were weighed and frozen. All blood samples were centrifuged at 4°C to obtain plasma. Plasma samples were transferred to tubes preloaded with NaF (final concentration at 5 mM in 200 µL plasma) and stored at −80°C until analysis.\nFor fat tissue, an additional 3-fold volume of acetonitrile was added to the water homogenate and was vortexed in a shaker for another 30 min.\nA 10 μ aliquot of samples, blank controls (blank plasma or tissue homogenates), quality controls (QC), and standards were added into 200 μ acetonitrile solution with 100 ng/mL tolbutamide (internal standard, IS). All samples were then thoroughly shaken for 5 min to precipitate proteins. The samples were centrifuged at 3000 rpm and 4°C for 30 min. The supernatant was injected for UPLC-MS/MS analysis.\nThe mobile phase consisted of 0.1% formic acid in water (A) and 0.1% formic acid in acetonitrile (B), the flow rate was 600 μL/min. […] All analyses were carried out using a Waters Acquity I-Class UPLC interfaced with a Waters Xevo TQ-S mass spectrometer. The mass spectrometer multiple reaction monitoring (MRM) experiment was operated with an ESI source at negative mode with spray voltage of 1 kV, and temperature of 600°C. Both Q1 and Q3 were set at unit resolution. […] The correlation coefficients of the calibration curves were all greater than 0.99. […] The linear range, precision and accuracy of QCs in various tissues and plasma are shown in Supplementary Table S1 and Supplementary Table S2.\nThe area under the concentration vs. time curve (AUC) was calculated using the linear trapezoidal method. The terminal rate constant (λ) was obtained from the slope of at least three data points of the apparent terminal phase of the log linear concentration vs. time curve. AUC0–∞ was estimated as the sum of the AUC0–t (where t is the time of the last measurable concentration) and Ct/λ. […] Bioavailability (F) was calculated using ratios of dose-normalized AUC of PO and IV administration."}, "[3]": {"assay": "Plasma protein binding, equilibrium dialysis (RED device)", "assay_type": "in vitro ADME, human", "settings": "read-out: Fup (unbound fraction in plasma)", "protocol": "Plasma protein binding was determined with equilibrium dialysis method using the Rapid Equilibration Dialysis (RED) device (Thermo Fisher Catalog # 90006). The assay was performed using manufacturer’s procedures. Briefly, plasma spiked with a test compound (5 µM) was added to the plasma chamber of the RED device. Blank potassium phosphate buffer (100 mM) was added to the buffer chamber of the RED device and the plate was incubated at 37°C. Aliquots of the buffer and the plasma were taken at 0 and 4 h, and the concentrations of free and bound test compounds were determined using the previously described LC-MS method ([Shah et al., 2016])."}, "[4]": {"assay": "Metabolic stability in plasma", "settings": "for Plasma k: human, in vitro", "procedure": "The incubation was carried out at 37°C for 15, 30, and 60 min. The reaction in plasma or liver microsomes was quenched by adding 200 μL of cold acetonitrile (containing 100 ng/mL tolbutamide as internal standard). After a 20 min centrifugation at 3000 rpm, 4°C, the supernatant was transferred to an analysis plate and analyzed by UPLC-MS/MS as described in Section 2.4.2.\nThe substrate disappearance half-life (t1/2) was estimated by regression analysis of the semi-logarithmic (ln Conc vs. time) plots."}, "[5]": {"assay": "Metabolic stability and biotransformation in liver microsomes", "settings": "for Liver Vmax: in vitro", "procedure": "The incubation was carried out at 37°C for 15, 30, and 60 min. The reaction in plasma or liver microsomes was quenched by adding 200 μL of cold acetonitrile (containing 100 ng/mL tolbutamide as internal standard).\nThe mc was the microsome concentration used in the incubation (0.5 mg/mL). The substrate disappearance half-life (t1/2) was estimated by regression analysis of the semi-logarithmic (ln Conc vs. time) plots. […] The Vmax, in vitro,app, PDN-total and Km for PDN depletion in liver microsomes were estimated by the Michaelis-Menten model using GraphPad Prism version 8."}, "SARS-CoV-2": {"test_system": "SARS-CoV-2", "parameters": "method as in Huang et al., 2022", "settings": "cytopathic effect assay and cytotoxicity counter screen; ref Huang et al., 2022; cited from earlier work"}, "[6]": {"assay": "PBPK model (GastroPlus): simulation and model parameters incl. permeability surface product and scaled metabolic kinetics, human", "settings": "for Liver Vmax: in vivo (scaled)"}, "[7]": {"settings": "conversion to Nc, in vivo, predicted from in vitro liver parameters"}, "[8]": {"settings": "male, LVG golden Syrian, hamster, in vivo, iv, 3 mg/kg"}, "[9]": {"settings": "male, LVG golden Syrian, hamster, in vivo, po, 30 mg/kg"}, "[10]": {"settings": "male, LVG golden Syrian, hamster, in vivo, po, 30 mg/kg, hamsters, PO 30 mg/kg PDN, lung"}, "[11]": {"settings": "male, LVG golden Syrian, hamster, in vivo, po, 30 mg/kg, hamsters, PO 30 mg/kg PDN, plasma"}}, "note": "Values joined by “and” are separate entries in the source; they are usually repeats but may differ in a detail not shown here. Identical values can stand only once. Like-named read-outs stand apart in the source and are kept apart here."}
{"smiles": "O=C(Nc1ccc([N+](=O)[O-])cc1Cl)c1cc(Cl)ccc1OC(=O)N1CCNCC1", "note": "[PDN]", "values": [{"measurement": "Liver Vmax", "setting": "[1]; conversion to Nc", "value": 0.0015, "unit": "mg/s/mg microsomes"}, {"measurement": "Plasma k", "setting": "[1]; conversion to Nc", "value": 0.0067, "unit": "s⁻¹"}, {"measurement": "Gut Vmax", "setting": "[1]; [7]", "value": 0.00004, "unit": "mg/s/mg microsomes"}, {"measurement": "Liver Vmax", "setting": "[1]; conversion to Others", "value": 0.2310, "unit": "mg/s/mg microsomes"}, {"measurement": "Plasma k", "setting": "[1]; conversion to Others", "value": 0.0080, "unit": "s⁻¹"}, {"measurement": "AUC0-∞ Observed", "setting": "[2]; hamsters, IV 3 mg/kg PDN, lung", "value": "45600 (4266) h*ng/g"}, {"measurement": "AUC0-∞ Observed", "setting": "[2]; hamsters, PO 30 mg/kg PDN, lung", "value": "462000 (28500) h*ng/g"}, {"measurement": "t1/2 Observed", "setting": "[2]; hamsters, PO 30 mg/kg PDN, plasma, 30 mg/kg", "value": "1.8 (0.13) h"}, {"measurement": "AUC(0-inf)", "setting": "[2]; [8]", "value": 631, "unit": "ng·h/mL"}, {"measurement": "Kp", "setting": "[2]; [8]", "value": 72}, {"measurement": "Vd", "setting": "[2]; [8]", "value": 0.74, "unit": "L"}, {"measurement": "clearance", "setting": "[2]; [8]", "value": 8, "unit": "mL/min"}, {"measurement": "half-life", "setting": "[2]; male, LVG golden Syrian, hamster, in vivo, iv, 3 mg/kg, hamsters, IV 3 mg/kg PDN, lung", "value": 1.1, "unit": "h"}, {"measurement": "half-life", "setting": "[2]; male, LVG golden Syrian, hamster, in vivo, iv, 3 mg/kg, hamsters, IV 3 mg/kg PDN, plasma", "value": 1.1, "unit": "h"}, {"measurement": "AUC(0-inf)", "setting": "[2]; [9]", "value": 4320, "unit": "ng·h/mL"}, {"measurement": "CL/F", "setting": "[2]; [9]", "value": 11.5, "unit": "mL/min"}, {"measurement": "Cmax", "setting": "[2]; [9]", "value": "98000 ng/g and 1060 ng/mL"}, {"measurement": "Kp", "setting": "[2]; [9]", "value": 107}, {"measurement": "Vd/F", "setting": "[2]; [9]", "value": 1.78, "unit": "L"}, {"measurement": "bioavailability", "setting": "[2]; [9]", "value": "~64", "unit": "%"}, {"measurement": "Tmax", "setting": "[2]; [10]", "value": 1, "unit": "h"}, {"measurement": "Tmax", "setting": "[2]; [11]", "value": 0.5, "unit": "h"}, {"measurement": "half-life", "setting": "[2]; [10]", "value": 2.3, "unit": "h"}, {"measurement": "half-life", "setting": "[2]; [11]", "value": "~1.8", "unit": "h"}, {"measurement": "fraction unbound at 4 h, 5 µM", "setting": "[3]; human and rodent (rodent predicted), rodent (predicted) and human plasma", "value": "0.12 to 0.15"}, {"measurement": "fraction unbound at 4 h, 5 µM", "setting": "[3]; human, human plasma, experimental", "value": 0.152}, {"measurement": "Plasma k", "setting": "[4]; conversion to Nc", "value": 0.00026, "unit": "s⁻¹"}, {"measurement": "Plasma k", "setting": "[4]; conversion to Others", "value": 0.0022, "unit": "s⁻¹"}, {"measurement": "kin vitro,app, PDN-total (total depletion of PDN)", "setting": "[4]; human plasma, 37°C", "value": "0.0025 ± 0.0013", "unit": "min⁻¹"}, {"measurement": "Liver Vmax", "setting": "[5]; conversion to Nc, human", "value": 0.0002, "unit": "mg/s/mg microsomes"}, {"measurement": "Gut Vmax", "setting": "[5]; conversion to Nc, human, in vitro (in vitro liver parameters)", "value": 0.00024, "unit": "mg/s/mg microsomes"}, {"measurement": "Liver Vmax", "setting": "[5]; conversion to Others, human", "value": 0.0106, "unit": "mg/s/mg microsomes"}, {"measurement": "Vmax in vitro,app, PDN-total", "setting": "[5]; human liver microsomes", "value": "0.365 ± 0.187", "unit": "nmol/min/mg"}, {"measurement": "Km", "setting": "[5]; human, pH 7.4", "value": "33.8 ± 29.1", "unit": "µM"}, {"measurement": "in vitro activity against SARS-CoV-2", "setting": "SARS-CoV-2", "value": "showed in vitro activity against SARS-CoV-2"}, {"measurement": "Liver Vmax", "setting": "[6]; conversion to Nc", "value": 0.0004, "unit": "mg/s/mg microsomes"}, {"measurement": "Gut Vmax", "setting": "[6]; [7]", "value": 0.00001, "unit": "mg/s/mg microsomes"}, {"measurement": "Liver Vmax", "setting": "[6]; conversion to Others", "value": 0.0164, "unit": "mg/s/mg microsomes"}]}
